Patent US20120053208A1 (THE OHIO STATE UNIVERSITY RESEARCH FOUNDATION, priority 2009, published 2012)

Key:
[1] = tested on: downstream targets of STAT3; assay: Expression of downstream targets of STAT3 by immunoblot; assay type: cell-based, human; settings: both breast cancer cell lines (MDA-MB-231, MDA-MB-468)
Description: (§1) The cell extract were processed for immunoblotting using specific antibodies. GAPDH was used as loading control.
(§2) The cell extracts were processed for immunoblotting using specific antibodies. GAPDH was used as loading control.
(§3) GAPDH was used as loading control.
as §2

[2] = tested on: STAT1 DNA binding activity; assay: STAT1 DNA binding activity (STAT1 Transcription Factor Kit); assay type: cell-based, human; settings: MDA-MB-231 cells; 10 μM, 24 h
Procedure: (§4) Cells were treated with FLLL31 (10 μM) or DSMO (control) for 24 h. The cell extracts were analyzed for STAT3 DNA binding activity using STAT3 and STAT1 Transcription Factor Kits.

[3] = tested on: ERK1/2, PKC-δ, mTOR, p70S6K, and AKT phosphorylation; assay: Phosphorylation of other kinases by immunoblot in breast cancer cells; assay type: cell-based, human; settings: MDA-MB-231 and MDA-MB-468 cells, 24 h
Description: as §1, §2

STAT3 phosphorylation = STAT3 phosphorylation by immunoblot in cancer cells with persistently activated STAT3; assay type: cell-based, human; settings: 24 h
Description: as §1, §2, §3, §2

[4] = tested on: STAT3 DNA binding activity; assay: STAT3 DNA binding activity (STAT3 Transcription Factor Kit); assay type: cell-based, human; settings: MDA-MB-231 cells; 10 μM, 24 h
Procedure: Cells were treated with the compounds or DMSO (control) for 24 h. The cell extract were analyzed for STAT3 binding activity using STAT3 Transcription Factor Kit.
as §4

[5] = tested on: eight cancer cell lines with elevated levels of STAT3 phosphorylation; assay: Anti-proliferative activity in a panel of eight cancer cell lines; assay type: cell-based, human
[6] = tested on: STAT3 dependent luciferase activity; assay: STAT3-dependent transcriptional luciferase activity (pLucTKS3); assay type: cell-based, human; settings: MDA-MB-231 cells stably transfected with pLucTKS3; 1-10 μmol/L, 24 hours
Procedure: Cells were incubated with the compounds for 24 h and were then harvested for luciferase activity analysis.
Expression of luciferase is thus contingent upon the phosphorylation and activation of STAT3.

[7] = tested on: cells with persistent expression of p-STAT3; assay: Apoptosis (cleaved caspase-3 immunoblot) in cancer cells; assay type: cell-based, human; settings: 24 h
Description: as §1, §2, §3, §2, §2

[8] = tested on: normal human pancreatic duct epithelial cells, normal human lung fibroblasts, normal human mammary epithelial cells; assay: Apoptosis (cleaved caspase-3 immunoblot) in normal human cells; settings: HPDE, HMEC and normal human lung fibroblasts; 24 h
Description: as §2

JAK2 kinase = JAK2 kinase (Homo sapiens, UniProt O60674); assay: JAK2 kinase assay (HTScan JAK2 kinase assay kit); settings: at 10 μM
JAK2 kinase, sequence (O60674 whole entry): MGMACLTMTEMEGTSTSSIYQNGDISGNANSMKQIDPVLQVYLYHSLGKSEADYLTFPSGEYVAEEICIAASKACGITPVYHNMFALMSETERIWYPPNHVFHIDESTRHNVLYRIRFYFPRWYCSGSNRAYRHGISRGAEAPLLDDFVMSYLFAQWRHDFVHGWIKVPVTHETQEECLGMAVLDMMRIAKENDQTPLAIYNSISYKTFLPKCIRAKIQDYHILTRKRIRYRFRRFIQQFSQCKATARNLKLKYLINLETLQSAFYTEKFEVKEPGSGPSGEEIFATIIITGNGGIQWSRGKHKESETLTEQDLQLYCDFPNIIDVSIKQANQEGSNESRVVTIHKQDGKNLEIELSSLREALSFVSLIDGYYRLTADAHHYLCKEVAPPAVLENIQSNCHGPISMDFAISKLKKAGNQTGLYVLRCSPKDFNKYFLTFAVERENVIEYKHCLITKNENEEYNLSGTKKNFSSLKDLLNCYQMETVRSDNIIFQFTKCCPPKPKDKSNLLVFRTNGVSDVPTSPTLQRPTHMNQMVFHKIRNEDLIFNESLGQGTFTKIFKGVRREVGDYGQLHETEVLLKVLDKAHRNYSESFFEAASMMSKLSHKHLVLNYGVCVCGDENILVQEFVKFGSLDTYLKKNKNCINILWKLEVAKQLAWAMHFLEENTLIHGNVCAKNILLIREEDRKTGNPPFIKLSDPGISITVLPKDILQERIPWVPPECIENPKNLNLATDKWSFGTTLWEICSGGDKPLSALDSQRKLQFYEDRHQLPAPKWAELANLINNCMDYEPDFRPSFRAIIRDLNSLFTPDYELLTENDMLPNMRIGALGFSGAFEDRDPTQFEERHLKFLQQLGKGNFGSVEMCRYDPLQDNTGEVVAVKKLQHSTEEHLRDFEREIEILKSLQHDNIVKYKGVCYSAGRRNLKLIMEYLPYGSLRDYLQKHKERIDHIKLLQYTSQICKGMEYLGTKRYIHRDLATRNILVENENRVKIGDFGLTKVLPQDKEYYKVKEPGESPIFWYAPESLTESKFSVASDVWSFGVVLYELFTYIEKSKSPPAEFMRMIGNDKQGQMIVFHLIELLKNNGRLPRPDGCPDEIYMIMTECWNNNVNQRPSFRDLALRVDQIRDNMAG
Procedure: JAK2 kinase assay was performed using a HTScan JAK2 kinase assay kit.

| JAK2 inhibition (JAK2 kinase) | SMILES | down-regulation of cyclin D1 [1] | selectivity: STAT3 versus STAT1 DNA binding activity [2] | effects on ERK1/2, PKC-δ, mTOR, p70S6K, and AKT phosphorylation [3] | inhibition of STAT3 phosphorylation (STAT3 phosphorylation; MDA-MB-231 breast cancer cells, 2.5 and 5 μM) | inhibition of STAT3 phosphorylation (STAT3 phosphorylation; MDA-MB-468 breast cancer cells, 2.5, 5 and 10 μM) | inhibition of STAT3 DNA binding activity [4] | potency of STAT3 DNA binding inhibition relative to curcumin [4] | IC50, anti-proliferative activity ([5]; SUM-159, ZR-75-1, BXPC-3, HPAC, PANC-1, SW1990, U373, U266) | anti-proliferative potency relative to WP1066, Stattic, S31-201, SD1029 and AG490 ([5]; panel of eight cancer cell lines) | inhibition of STAT3 dependent luciferase activity [6] | induction of apoptosis (cleavages of caspase-3) ([7]; MDA-MB-231 and MDA-MB-468 breast cancer cells) | induction of apoptosis (cleaved caspase-3) ([7]; PANC-1, BXPC-3 and SK-BR-3 cells, 5 or 10 μM) | induction of apoptosis in normal human cells [8] | inhibition of STAT3 phosphorylation (STAT3 phosphorylation; U373 human glioblastoma cells, 5 μM) | induction of apoptosis ([7]; U373 cells, 5 μM) |
| --- | --- | --- | --- | --- | --- | --- | --- | --- | --- | --- | --- | --- | --- | --- | --- | --- |
|  | COc1ccc(/C=C/C(=O)C(C)(C)C(=O)/C=C/c2ccc(OC)c(OC)c2)cc1OC [FLLL31] | down-regulation of cyclin D1 | inhibit STAT3 but not STAT1 DNA binding activity | little effects | inhibited STAT3 phosphorylation | inhibited STAT3 phosphorylation | statistically significant inhibition | significantly more potent than curcumin | submicromolar | more potent than the other inhibitors | dose-dependent inhibition | induction of apoptosis | induce apoptosis | no apoptosis induction |  |  |
|  | C[C@H](NC(=O)/C(C#N)=C/c1cccc(Br)n1)c1ccccc1 [WP1066, reference compound] |  |  |  |  |  |  |  |  |  |  |  |  |  | inhibit STAT3 phosphorylation | induce apoptosis |
| did not show any JAK2 inhibition | COc1cc(C=CC(=O)CC(=O)C=Cc2ccc(O)c(OC)c2)ccc1O [curcumin, 1,7-bis(4-hydroxy-3-methoxyphenyl)-1,6-heptadien-3,5-dione, reference compound] |  |  |  |  |  | inhibit STAT3 DNA binding activity |  |  |  |  |  |  |  |  |  |
